{"source": "paper PMC12406204", "about": "(Journal of Medicinal Chemistry, 2025)", "test_system": "mouse primary neurons", "assay": "Neuroprotection in primary cultures exposed to LPS + IFN-γ", "assay_type": "cell-based", "experimental": "To unequivocally confirm that the observed neuroprotective effect was indeed mediated by CB2R activation, an additional experiment was conducted (Figure C).\nTo prepare primary neurons, brains from fetuses of pregnant CD1 mice were removed (gestational age: 19 days). Neurons were isolated as described in Hradsky et al. Briefly, after removal of the meninges, samples were dissected and digested with 0.25% trypsin (20 min at 37 °C). The effect of trypsin was stopped by adding an equal volume of culture medium (supplemented DMEM). A single-cell suspension was obtained by repeated pipetting followed by passage through a 100 μm-pore mesh. Pelleted (7 min, 200g) cells were resuspended in 2 mL of supplemented DMEM and seeded at a density of 3.5 × 10^5 cells/mL in 6-well plates. […]\nPrimary cultures of striatal neurons were treated for 24 h with selected SCRAs (100 nM). […] After ∼3 min of incubation at room temperature, 10 μL of the mixture were sampled in a Neubauer chamber and counted with a Countess II FL (Life Technologies, California, CA, USA). The unstained (viable) and stained (nonviable) cells were counted separately, and the percentage of viability was calculated as total number of viable cells/total number of cells × 100."}
{"smiles": "NC(=O)[C@@H]1CCCCN1C(=O)c1nn(Cc2ccc(F)cc2)c2ccccc12", "note": "[18o]", "values": [{"measurement": "cell viability after LPS + IFN-γ with CB2R antagonist SR144528", "setting": "compound alongside SR144528", "value": "~60", "unit": "%"}, {"measurement": "cell viability after LPS + IFN-γ", "setting": "primary cultures exposed to LPS + IFN-γ", "value": "~100", "unit": "%"}]}
